Measured values taken from patent publication US20020002172A1, “PHARMACEUTICAL FORMULATIONS” (priority 1998, published 2002).
Structures can show the parent of a compound that is named as a salt.

Tests used:
[1] = solubility of sildenafil forms in water; format: physicochemical
solubility in saliva = format: physicochemical

Structure (SMILES)	solubility of salt form ([1]; medium not stated)	solubility in water ([1]; water)	solubility in saliva (solubility in saliva)
CCCc1nn(C)c2c(=O)[nH]c(-c3cc(S(=O)(=O)N4CCN(C)CC4)ccc3OCC)nc12 [sildenafil citrate]	highly soluble		
CCCc1nn(C)c2c(=O)[nH]c(-c3cc(S(=O)(=O)N4CCN(C)CC4)ccc3OCC)nc12 [sildenafil free base, 5-[2-ethoxy-5-(4-methylpiperazin-1-ylsulphonyl)-phenyl] -1,6-dihydro-1-methyl-3-propylpyrazolo [4,3-d]pyrimidin-7-one]		extremely low solubility	extremely low solubility
